This is an account of results in US12312333B2, “SK channel positive allosteric modulators” (Chapman University, priority 2021, dated 2025).

Type in all cases: cell-based
The target in assay [1] is T1, human KCa2.1 channel (Homo sapiens, UniProt P0DP23+Q92952).
T1 construct: expressed in transfected cells; host or cells: HEK293
Put plainly: Inside-out patch-clamp on KCa2.1 channels expressed in HEK293 cells. The following applies: for response of KCa2.1 channels: inside-out patch; for Emax: normalized to 10 μM Ca2+. As for the experimental part: (§1) The two newly synthesized compounds, 2o and 2q, were tested to determine whether they retained their subtype-selectivity. Neither 2o (FIG. 5A) nor 2q (FIG. 5B) elicited significant responses from the human KCa2.1 channel expressed in HEK293 cells. When compared with the responses from KCa2.2a channels to these two compounds, the differences became even more apparent (FIG. 5C), with the Emax values on KCa2.2a channels at ˜90%, whereas the Emax values on KCa2.1 channels were at ˜0% (FIG. 5D).
(§2) The effect of newly synthesized compounds on the KCa2.x/KCa3.1 channels was investigated as previously described (Nam, Y. W.; et al, Acta Physiol (Oxf) 2020, e13552; Nam, Y. W.; et al. Scientific reports 2018, 8 (1), 10749). Briefly, the rat KCa2.2a, human KCa2.1, human KCa2.3 or human KCa3.1 channels cDNA constructs were either generated in-house or through molecular cloning services (Genscript). The channel cDNAs, along with CaM and GFP, at a ratio of 7:4:2 (ORF ratios), were transfected into HEK293 cells by the calcium-phosphate method. KCa currents were recorded 1-2 days after transfection, with an Axon200B amplifier (Molecular Devices) at room temperature. The resistance of the patch electrodes ranged from 3-5 MΩ. The pipette solution contained (in mM): 140 KCl, 10 Hepes (pH 7.4), 1 MgSO4. The bath solution containing (in mM): 140 KCl, 10 Hepes (pH 7.2), 1 EGTA, 0.1 Dibromo-BAPTA, and 1 HEDTA was mixed with Ca^2+ to obtain the desired free Ca^2+ concentrations, calculated using the software by Chris Patton of Stanford University (https://somapp.ucdmc.ucdavis.edu/pharmacology/bers/maxchelator/webmaxc/webmaxcS.htm). […] Briefly, a standard curve was generated using the Ca^2+ buffers from the kit and a fluorescence Ca^2+ indicator. Then, the Ca^2+ concentrations of the bath solution were determined through interpolation on the standard curve.
(§3) High resistance seals (>1 GΩ) were formed before inside-out patches were obtained. […] Currents were recorded by repetitive 1-s-voltage ramps from −100 mV to +100 mV from a holding potential of 0 mV. […]
(§4) To measure the effect of CyPPA (Alomone Labs) and newly synthesized compounds, the intracellular face was exposed to bath solutions with 0.15 μM Ca^2+. One minute after switching of bath solutions, ten sweeps with a 1-s interval were recorded at a series of concentrations of compound in the presence of 0.15 μM Ca^2+. The maximal KCa2.x/KCa3.1 current in response to 10 μM Ca^2+ was then recorded.
(§5) Patch-clamp recordings were analyzed using Clampfit 10.5 (Molecular Devices LLC) and concentration-response curves were analyzed in GraphPad Prism 9.0.2 (GraphPad Software Inc.). […] EC50 values and Hill coefficients were determined by fitting the data points to a standard concentration-response curve (Y=100/(1+(X/EC50)^−Hill)). […]
(The patch-clamp technique gives a direct electrical read-out from membranes.)

For assay [2], the target named is T2, human KCa3.1 channel (Homo sapiens, UniProt O15554+P0DP23).
T2 construct: expressed in transfected cells; host or cells: HEK293
Put plainly: Inside-out patch-clamp on KCa3.1 channels expressed in HEK293 cells. The following applies: for response of KCa3.1 channels: inside-out patch; for Emax: normalized to 10 μM Ca2+. On the procedure:
as §1, §2, §3, §4, §5

Assay [3] concerns the target T3, human KCa2.3 channels (Homo sapiens, UniProt P0DP23+Q9UGI6).
T3 construct: expressed in transfected cells; host or cells: HEK293
The experiment in a line: Inside-out patch-clamp potentiation of KCa2.3 channels expressed in HEK293 cells. The following applies: for EC50: inside-out patch, HEK293, 0.15 μM Ca2+, read-out: EC50 on potentiating KCa2.3 channels.
From the text: The effects of the two newly synthesized compounds on human KCa2.3 channels (FIG. 7A) were examined.
as §2, §3
To measure the effect of CyPPA (Alomone Labs) and newly synthesized compounds, the intracellular face was exposed to bath solutions with 0.15 μM Ca^2+. One minute after switching of bath solutions, ten sweeps with a 1-s interval were recorded at a series of concentrations of compound in the presence of 0.15 μM Ca^2+. The maximal KCa2.x/KCa3.1 current in response to 10 μM Ca^2+ was then recorded. […]

With `Cc1cc(Nc2cc(Cl)ccc2F)nc(-n2nc(C)cc2C)n1` [Compound 2q, N-(5-Chloro-2-fluorophenyl)-2-(3,5-dimethyl-1H-pyrazol-1-yl)-6-methylpyrimidin-4-amine], in assay [1], the “response of KCa2.1 channels” value is “Lack of response” and the Emax is about 0%. Further, in assay [2], the “response of KCa3.1 channels” value is “mostly insensitive” and the Emax was -0.79 ± 1.19%. The EC50 in assay [3] was found to be 600 ± 35 nM.
On to `Cc1cc(Nc2ccc(F)c(Cl)c2)nc(-n2nc(C)cc2C)n1` [Compound 2o, N-(3-Chloro-4-fluorophenyl)-2-(3,5-dimethyl-1H-pyrazol-1-yl)-6-methyl-pyrimidin-4-amine], for which, in assay [1], the “response of KCa2.1 channels” value was “Lack of response” and the Emax is about 0%. Moreover, in assay [2], the “response of KCa3.1 channels” value is listed as “mostly insensitive” and the Emax was 26.1 ± 7.67%. Also, in assay [3], the “potency on KCa2.3 compared to KCa2.2a channels” value is recorded as “significantly smaller” and the EC50 is 190 ± 23 nM.

The term Emax denotes the maximal effect, on the per cent scale that the assay sets. By EC50 is commonly meant the concentration giving half of the maximal effect.
